Source: US11427544B2, “Histone deacetylase 6 inhibitors and use thereof” (TAIPEI MEDICAL UNIVERSITY, priority 2016, dated 2022)
Structures can show the parent of a compound that is named as a salt.

How the values were obtained:
HDAC6 = molecular target: T1, HDAC6 (Homo sapiens, UniProt Q9UBN7); assay: Fluorogenic HDAC assay, HDAC6; assay type: biochemical
T1 construct: purchased BPS Bioscience Corp
T1 sequence (Q9UBN7 1-1215): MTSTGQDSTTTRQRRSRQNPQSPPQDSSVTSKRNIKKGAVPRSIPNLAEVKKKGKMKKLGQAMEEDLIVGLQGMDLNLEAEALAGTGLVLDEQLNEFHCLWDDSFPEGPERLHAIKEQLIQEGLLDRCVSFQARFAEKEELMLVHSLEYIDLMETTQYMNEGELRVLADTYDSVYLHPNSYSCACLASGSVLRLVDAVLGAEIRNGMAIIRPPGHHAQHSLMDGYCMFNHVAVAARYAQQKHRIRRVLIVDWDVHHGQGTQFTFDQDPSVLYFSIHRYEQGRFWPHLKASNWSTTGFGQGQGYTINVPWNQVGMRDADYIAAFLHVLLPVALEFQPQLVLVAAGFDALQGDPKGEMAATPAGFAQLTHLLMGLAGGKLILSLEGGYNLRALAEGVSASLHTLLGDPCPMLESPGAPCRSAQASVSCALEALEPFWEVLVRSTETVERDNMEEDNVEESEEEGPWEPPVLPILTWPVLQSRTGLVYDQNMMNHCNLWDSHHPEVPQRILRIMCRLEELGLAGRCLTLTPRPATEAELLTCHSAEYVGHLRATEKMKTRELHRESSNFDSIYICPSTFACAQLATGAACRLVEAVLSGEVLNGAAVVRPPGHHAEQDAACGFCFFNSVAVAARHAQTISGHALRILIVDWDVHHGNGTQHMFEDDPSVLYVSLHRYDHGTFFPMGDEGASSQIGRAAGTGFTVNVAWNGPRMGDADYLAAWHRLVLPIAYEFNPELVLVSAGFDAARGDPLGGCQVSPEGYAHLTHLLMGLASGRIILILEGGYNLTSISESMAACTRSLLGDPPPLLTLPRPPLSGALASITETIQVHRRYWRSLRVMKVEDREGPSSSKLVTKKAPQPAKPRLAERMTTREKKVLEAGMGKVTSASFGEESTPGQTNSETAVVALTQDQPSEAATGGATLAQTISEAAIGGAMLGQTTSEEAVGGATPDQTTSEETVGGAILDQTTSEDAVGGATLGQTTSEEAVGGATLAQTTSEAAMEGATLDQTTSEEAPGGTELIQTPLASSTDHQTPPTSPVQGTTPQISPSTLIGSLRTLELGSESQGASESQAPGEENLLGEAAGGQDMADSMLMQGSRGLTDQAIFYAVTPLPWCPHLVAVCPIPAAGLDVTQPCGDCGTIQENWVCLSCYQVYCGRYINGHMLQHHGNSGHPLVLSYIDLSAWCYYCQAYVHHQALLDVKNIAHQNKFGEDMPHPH
Excerpt: (§1) Of note, there are eighteen human HDACs. Eleven of them, designated as HDAC1-11, are zinc-dependent. Seven of them, designated as Sirt1-7, are NAD+-dependent.
(§2) Fluorogenic HDAC assay kits were used to assess the ability of HDAC inhibitors to inhibit deacetylation of lysine residues on a substrate by recombinant proteins HDAC1, 3, 4, 5, 6, 7, 8, 9 and Sirt1 according to the manufacturer's instructions (BPS Bioscience Corp., San Diego, Calif., USA).

[1] = test system: BJAB Burkitt lymphoma-derived B-cell; assay: Tumor growth inhibition, BJAB xenograft; assay type: in vivo, athymic nude mice; conditions: 50 mg/kg, qd, intraperitoneal
Protocol: (§3) An in vivo study was conducted to evaluate the efficacy of compounds of Formula (I) in suppressing tumor growth in multiple human cancer types.
(§4) Eight-week-old athymic nude mice were group-housed under conditions of constant photoperiod (12 h light/12 h dark at 21-23° C. and 60-85% humidity) with ad libitum access to sterilized food and water. All animal experiments followed ethical standards, and protocols were reviewed and approved by the Animal Use and Management Committee of National Taiwan University. Each mouse was inoculated subcutaneously with 1×10^6˜1×10^7 human cancer cells in a total volume of 0.1 mL serum-free medium containing 50% Matrigel (BD Biosciences). As tumors became established (˜100 mm^3), mice were randomized to various groups to be treated with pre-determined materials (n=6-8/group): (i) control group: 0.5% DMSO/0.5% Cremophor/90% D5W and (ii) treatment groups: Compounds 12 and 28 at pre-determined doses daily. Mice received treatment by intraperitoneal injection for the duration of the study. Tumors were measured weekly using calipers. Tumor size, in mm^3, was calculated according to the formula: Tumor volume=(w^2×l)/2, where w and 1 respectively represent the width and length (both in mm) of the tumor.

[2] = Safety in ICR mice, 7-day intraperitoneal dosing; assay type: in vivo; conditions: 50, 100, and 200 mg/kg intraperitoneally once a day for 7 days, monitored another 7 days
Protocol: In addition, both Compounds 12 and 28 were studied to evaluate their safety in animals.
[…]. The animals were dosed intraperitoneally once a day for 7 days and then monitored for another 7 days. The animals were weighed daily for 1 week and then twice weekly.

[3] = test system: A549 lung cancer cell line; assay: Antiproliferative activity, A549; assay type: cell-based, human; conditions: Homo sapiens
Protocol: (§5) A study was conducted to evaluate the inhibitory activity of compounds of Formula (I) in inhibiting HDAC6, antiproliferative activity of test compounds in suppressing cancer cell growth, and selectivity of inhibiting HDAC6 over other HDAC isoforms.
(§6) The study was performed according to the protocol reported in Hsieh et al., Cell Death and Disease, 2014, April; 5:e1166.
(§7) Shown in Table 2 below are antiproliferative activities (measured by their half maximal concentration for inhibiting cell growth, i.e., GI50) of the test compounds against various cancer cell lines.

[4] = test system: scopolamine-induced memory deficit; assay: Water maze test, scopolamine-treated rats; assay type: in vivo; conditions: gavage twice daily for seven days; scopolamine 1.5 mg/kg i.p.
Protocol: An in vivo study was conducted to evaluate the efficacy of compounds of Formula (I) in improving memory deficits associated with Alzheimer's disease.
(§8) Compound 12, Compound 28, suberanilohydroxamic acid (50 mg/kg) or vehicle was given to rats by gavage twice daily for seven days prior to behavioral experiments. On the day conducting a behavior assessment, rats in all groups except the control group were administered scopolamine (1.5 mg/kg) by intraperitoneal injection for 30 minutes before the assessment, then a water maze test or an elevated plus maze test was performed.

[5] = test system: PC-3 prostate cancer cell line; assay: Antiproliferative activity, PC-3; assay type: cell-based, human; conditions: Homo sapiens
Protocol: as §5, §6, §7

[6] = test system: HL-60 Acute promyelocytic leukemia; assay: Tumor growth inhibition, HL-60 xenograft; assay type: in vivo, athymic nude mice; conditions: 50 mg/kg, qd, intraperitoneal
Protocol: as §3, §4

[7] = test system: Aβ42 production in pCAX APP 695 plasmid-transfected Neuro 2a and SH—SYSY cells; assay: Aβ42 production in cell culture supernatants; assay type: cell-based; conditions: pCAX APP 695 transfected Neuro 2a and SH—SYSY cells; 0.1-10 μM, 24 hours
Protocol: (§9) A study was conducted to evaluate the effect of compounds of Formula (I) in amyloid precursor protein (APP) levels and Aβ42 production.
Moreover, neuro 2a or SH—SYSY cells (1×10^5) were transfected with pCAX APP 695 plasmid for 24 hours, followed by incubation with Compound 12 or Compound 28 (0.1-10 μM) for another 24 hours. Cell culture supernatants were assayed for Aβ42 production.

[8] = test system: APP in pCAX APP 695 plasmid-transfected Neuro 2a cells; assay: Amyloid precursor protein (APP) levels, Western blot; assay type: cell-based; conditions: pCAX APP 695 transfected neuro 2a cells; 0.1-10 μM, 24 hours
Protocol: as §9
Neuro 2a cells (1×10^6) in 6-well plates were transfected with pCAX APP 695 plasmid for 24 hours, then incubated for another 24 hours with Compound 12, Compound 28, or tubasatin A (0.1-10 μM). Cells were then harvested and cell lysates were prepared for Western blot analysis of the APP proteins.

[9] = test system: scopolamine-induced memory deficit; assay: Elevated plus maze test, scopolamine-treated rats; assay type: in vivo; conditions: gavage twice daily for seven days; scopolamine 1.5 mg/kg i.p.
Protocol: as §8, with “An in vivo study was conducted to evaluate the efficacy of compounds of Formula (I) in improving memory deficits associated with Alzheimer's disease. Compound 12,” for “Compound 12,”, “was performed. […] The significant reduction in transfer latency time indicated improvement in memory.” for “was performed.”

HDAC1 = molecular target: T2, HDAC1 (Homo sapiens, UniProt Q13547); assay: Fluorogenic HDAC assay, HDAC1; assay type: biochemical; conditions: recombinant HDAC1; read-out: Enzyme IC50 HDAC1
T2 construct: purchased BPS Bioscience Corp
T2 sequence (Q13547 whole entry): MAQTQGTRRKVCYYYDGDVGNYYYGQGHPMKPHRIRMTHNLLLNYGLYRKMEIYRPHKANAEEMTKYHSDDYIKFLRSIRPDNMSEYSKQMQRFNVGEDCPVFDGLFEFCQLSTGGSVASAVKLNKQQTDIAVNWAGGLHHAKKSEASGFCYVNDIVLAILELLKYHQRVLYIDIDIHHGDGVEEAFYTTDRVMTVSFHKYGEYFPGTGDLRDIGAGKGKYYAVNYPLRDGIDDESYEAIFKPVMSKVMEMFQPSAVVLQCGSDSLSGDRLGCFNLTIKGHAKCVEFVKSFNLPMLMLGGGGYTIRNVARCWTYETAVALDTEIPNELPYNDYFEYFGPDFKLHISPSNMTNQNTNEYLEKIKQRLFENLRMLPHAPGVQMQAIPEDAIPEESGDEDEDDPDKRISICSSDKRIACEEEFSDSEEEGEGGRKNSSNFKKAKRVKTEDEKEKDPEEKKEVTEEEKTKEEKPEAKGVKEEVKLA
Excerpt: as §1, §2

[10] = test system: MDA-MB-231 Breast cancer cell line; assay: Antiproliferative activity, MDA-MB-231; assay type: cell-based, human; conditions: MDA-MB-231; mesylate
Protocol: as §5, §6, §7

[11] = test system: T98 Glioblastoma cell line; assay: Antiproliferative activity, T98; assay type: cell-based, human; conditions: T98; mesylate
Protocol: as §5, §6, §7

With `O=C(NO)c1ccc(CNc2cccc3ncccc23)cc1` [Compound 12, N-hydroxy-4-((quinolin-5-ylamino)methyl)benzamide] the IC50 (HDAC6) was 2.73 nM, the “% TGI” value [1] was 64.5% and the tolerability [2] was “well tolerated”. The GI50 [3] was 5530 ± 240 nM, the “time spent in the correct quadrant (water maze)” value [4] was “markedly reverse this effect” and the GI50 [5] was 3280 ± 110 nM. For the same compound, the “% TGI” value [6] was 72.2%, the Aβ42 production [7] was “decreased Aβ42 production” and the APP expression [8] was “markedly reduced the APP expression”. The “transfer latency time (elevated plus maze)” value [9] was “significantly rescued scopolamine-mediated increase of transfer latency time” and the IC50 (HDAC1) was 2650 nM.
Compound `O=C(NO)c1ccc(CNc2cccc3cccnc23)cc1` [Compound 28-mesylate, N-Hydroxy-4-(quinolin-8-ylaminomethyl)-benzamide mesylate] has a GI50 [10] of 1360 ± 250 nM and a GI50 [11] of 10800 ± 830 nM.
